From patent US8552035B2, “Phenanthrenone compounds, compositions and methods” (Pfizer Inc., priority 2008, dated 2013)

Tests used:
Type in all cases: cell-based
IFNγ = test: LPS-induced human whole blood, IFNγ release; conditions: for IFNγ (% inhibition) / inhibition at 3 µM: 3000 nM; for IFNγ (% inhibition): 3 µM; for inhibition at 0.00137174 µM: 1.371742 nM; for inhibition at 0.00411523 µM: 4.115226 nM; for inhibition at 0.0123457 µM: 12.34568 nM; for inhibition at 0.037037 µM: 37.03704 nM; for inhibition at 0.111111 µM: 111.1111 nM; for inhibition at 0.333333 µM: 333.3333 nM; for inhibition at 1 µM: 1000 nM
Procedure: (§1) Venous blood from human donors was collected as 10 ml aliquots in tubes containing sodium heparin (BD Vacutainer from Becton Dickinson and Company, Franklin Lakes, N.Y.). Blood was added to sterile polystyrene round bottom 96-well tissue culture plates (Corning Costar) at 180 Blood was placed in a humidified 37 C incubator with 5% CO2 while compounds were prepared (nearly 60 minutes).
(§2) Compounds were prepared from 10 mM stock solutions in dimethylsulfoxide (DMSO, Sigma-Aldrich). Stock compound was diluted in DMSO to give appropriate starting concentration then diluted serially 1/3 in DMSO (i.e. 15 μl compound+30 μl DMSO), followed by diluting each serial dilution 1/167 into vehicle solution (2% DMSO in phosphate buffered saline (Dulbecco's Phosphate Buffered Saline without calcium chloride without magnesium chloride, Invitrogen Corporation, Carlsbad Calif.)). Compound or vehicle was added to blood in 10 μl aliquots as triplicates, omitting the outside wells to minimize possible edge effects. The final highest concentration of each compound in the assay ranged from 3 to 0.3 μM. Final DMSO concentration in the assay was 0.1%. The plate containing the samples was gently vortexed to mix and replaced in the incubator. LPS stock (E. coli serotype 0111:B4, Sigma-Aldrich), stored in aliquots of 100 μg/ml in RPMI at −20° C., was diluted […] in RPMI to make a working stock solution. After 60 minutes of incubation, 10 μl of the prepared LPS working stock was added to the blood to a final concentration of 100 ng/ml. Wells to be used as negative control received RPMI media with no LPS. The plate was again gently vortexed and the plates incubated overnight for 22 hours. Following incubation, the blood was centrifuged at 1500×g for 5 minutes and the plasma removed to either freeze at −20° C. or assay for cytokine release.
(§3) IL-1β, IFNγ and TNFα protein levels were measured using Meso Scale assay kits (Meso Scale Discovery, Gaithersburg, Md., U.S.A.). Reagents were allowed to come to room temperature. Meso Scale plates were blocked with 150 μl of Meso Scale Block B diluent, gently shaking at room temperature for 60 minutes. Plates were washed 3× with wash buffer (PBS, Invitrogen Corporation, with 0.05% Tween-20, Sigma-Aldrich). Calibrators for standard curves were prepared in human plasma/serum assay diluent as a 1/5 serial dilution to achieve final concentrations ranging from 50000 pg/ml to 3.2 pg/ml. Samples were added at 10 to 20 μl/well and calibrators were added at 20 μl/well then incubated at room temperature with gentle shaking for 2 hours. Plates were again washed 3× with wash buffer. Detection antibody was diluted in human plasma/serum antibody diluent to 1 μg/ml and added to the plate at 20 μl/well. Plates were incubated as before for 2 hours and washed again. Read Buffer T (4×) was diluted 1:1 with mqH20 to 2× concentration and 150 μl added to each well. Plates were read on the SECTOR Imager 6000 (Meso Scale Discovery) to generate raw signal values.
(§4) Individual sample signal values were compared to positive and negative controls (vehicle treated blood with LPS and vehicle treated blood without LPS, respectively) to generate % inhibition. Triplicate values were averaged for each donor. The values for three or four donors were averaged and graphed using 4-parameter fit curves in the LabStats plug-in for the Microsoft Excel application.

TNFα = test: LPS-induced human whole blood, TNFα release; conditions: for inhibition at 0.00137174 µM: 1.371742 nM; for inhibition at 0.00411523 µM: 4.115226 nM; for inhibition at 0.0123457 µM: 12.34568 nM; for inhibition at 0.037037 µM: 37.03704 nM; for inhibition at 0.111111 µM: 111.1111 nM; for inhibition at 0.333333 µM: 333.3333 nM; for inhibition at 1 µM: 1000 nM
Procedure: as §1, §2, §3, §4

IL-1β = test: LPS-induced human whole blood, IL-1β release; conditions: for inhibition at 0.00137174 µM: 1.371742 nM; for inhibition at 0.00411523 µM: 4.115226 nM; for inhibition at 0.0123457 µM: 12.34568 nM; for inhibition at 0.037037 µM: 37.03704 nM; for inhibition at 0.111111 µM: 111.1111 nM; for inhibition at 0.333333 µM: 333.3333 nM; for inhibition at 1 µM: 1000 nM
Procedure: as §1, §2, §3, §4

[1] = Homo sapiens, 3000 nM, mean of donors
[2] = Homo sapiens, 0.457247 nM, mean of donors
[3] = ex vivo LPS-stimulated human whole blood, extent of inhibition, concentration not given

Structure (SMILES): Oc1ccc2c(c1)CC[C@@H]1C[C@@](O)(c3ccccc3)[C@@H](O)C[C@@]21Cc1ccccc1 [Comparator F, (2R,3S,4aR,10aR)-4a-Benzyl-2-phenyl-1,2,3,4,4a,9,10,10a-octahydrophenanthrene-2,3,7-triol]
- IFNγ (% inhibition) (IFNγ; mean of donors): 21.96%
- inhibition at 0.00137174 µM (IFNγ; Homo sapiens, mean of donors): -12.4%
- inhibition at 0.00411523 µM (IFNγ; Homo sapiens, mean of donors): -15.3%
- inhibition at 0.0123457 µM (IFNγ; Homo sapiens, mean of donors): -8.35%
- inhibition at 0.037037 µM (IFNγ; Homo sapiens, mean of donors): -13.4%
- inhibition at 0.111111 µM (IFNγ; Homo sapiens, mean of donors): -4.6%
- inhibition at 0.333333 µM (IFNγ; Homo sapiens, mean of donors): -3.3%
- inhibition at 1 µM (IFNγ; Homo sapiens, mean of donors): 14.6%
- inhibition at 3 µM (IFNγ; Homo sapiens, mean of donors): 22%
- inhibition at 0.00137174 µM (TNFα; Homo sapiens, mean of donors): -2.51%
- inhibition at 0.00411523 µM (TNFα; Homo sapiens, mean of donors): -8.12%
- inhibition at 0.0123457 µM (TNFα; Homo sapiens, mean of donors): -6.79%
- inhibition at 0.037037 µM (TNFα; Homo sapiens, mean of donors): -4.23%
- inhibition at 0.111111 µM (TNFα; Homo sapiens, mean of donors): -6.35%
- inhibition at 0.333333 µM (TNFα; Homo sapiens, mean of donors): -3.43%
- inhibition at 1 µM (TNFα; Homo sapiens, mean of donors): 4.14%
- inhibition at 0.00137174 µM (IL-1β; Homo sapiens, mean of donors): -4.16%
- inhibition at 0.00411523 µM (IL-1β; Homo sapiens, mean of donors): -6.16%
- inhibition at 0.0123457 µM (IL-1β; Homo sapiens, mean of donors): -5.49%
- inhibition at 0.037037 µM (IL-1β; Homo sapiens, mean of donors): -6.15%
- inhibition at 0.111111 µM (IL-1β; Homo sapiens, mean of donors): -4.59%
- inhibition at 0.333333 µM (IL-1β; Homo sapiens, mean of donors): -2.45%
- inhibition at 1 µM (IL-1β; Homo sapiens, mean of donors): 0.22%

Structure (SMILES): Cc1ncccc1COc1ccc2c(c1)CC[C@@H]1C[C@@](O)(c3ccccc3)[C@@H](O)C[C@@]21Cc1ccccc1 [Comparator G, (2R,3S,4aR,10aR)-4a-Benzyl-7(2-methyulpyridin-3-ylmethoxy)-2-phenyl-1,2,3,4,4a,9,10,10a-octahydrophenanthrene-2,3 diol]
- IFNγ (% inhibition) (IFNγ; mean of donors): 41.3796%
- inhibition at 0.00137174 µM (IFNγ; Homo sapiens, mean of donors): 16.7%
- inhibition at 0.00411523 µM (IFNγ; Homo sapiens, mean of donors): 12.8%
- inhibition at 0.0123457 µM (IFNγ; Homo sapiens, mean of donors): -9.15%
- inhibition at 0.037037 µM (IFNγ; Homo sapiens, mean of donors): -2.58%
- inhibition at 0.111111 µM (IFNγ; Homo sapiens, mean of donors): 2.66%
- inhibition at 0.333333 µM (IFNγ; Homo sapiens, mean of donors): 2.02%
- inhibition at 1 µM (IFNγ; Homo sapiens, mean of donors): 13.2%
- inhibition at 3 µM (IFNγ; Homo sapiens, mean of donors): 41%
- inhibition at 0.00137174 µM (TNFα; Homo sapiens, mean of donors): 3.22%
- inhibition at 0.00411523 µM (TNFα; Homo sapiens, mean of donors): -2.9%
- inhibition at 0.0123457 µM (TNFα; Homo sapiens, mean of donors): -14%
- inhibition at 0.037037 µM (TNFα; Homo sapiens, mean of donors): -13.9%
- inhibition at 0.111111 µM (TNFα; Homo sapiens, mean of donors): -8.76%
- inhibition at 0.333333 µM (TNFα; Homo sapiens, mean of donors): -13.8%
- inhibition at 1 µM (TNFα; Homo sapiens, mean of donors): -8.47%
- inhibition at 3 µM (TNFα; [1]): < 20%
- inhibition at 0.00137174 µM (IL-1β; Homo sapiens, mean of donors): -0.115%
- inhibition at 0.00411523 µM (IL-1β; Homo sapiens, mean of donors): -2.64%
- inhibition at 0.0123457 µM (IL-1β; Homo sapiens, mean of donors): -7.52%
- inhibition at 0.037037 µM (IL-1β; Homo sapiens, mean of donors): -7.35%
- inhibition at 0.111111 µM (IL-1β; Homo sapiens, mean of donors): -5.37%
- inhibition at 0.333333 µM (IL-1β; Homo sapiens, mean of donors): -6.75%
- inhibition at 1 µM (IL-1β; Homo sapiens, mean of donors): -1.19%
- inhibition at 3 µM (IL-1β; [1]): < 20%

Structure (SMILES): C[C@]12C=CC(=O)C=C1CC[C@@H]1[C@@H]2[C@@H](O)C[C@@]2(C)[C@H]1CC[C@]2(O)C(=O)CO [Prednisolone]
- inhibition at 0.000457247 µM (IFNγ; [2]): 1.19%
- inhibition at 0.00137174 µM (IFNγ; Homo sapiens, mean of donors): 9.75%
- inhibition at 0.00411523 µM (IFNγ; Homo sapiens, mean of donors): 25.2%
- inhibition at 0.0123457 µM (IFNγ; Homo sapiens, mean of donors): 34.7%
- inhibition at 0.037037 µM (IFNγ; Homo sapiens, mean of donors): 70.7%
- inhibition at 0.111111 µM (IFNγ; Homo sapiens, mean of donors): 85.2%
- inhibition at 0.333333 µM (IFNγ; Homo sapiens, mean of donors): 94.8%
- inhibition at 1 µM (IFNγ; Homo sapiens, mean of donors): 96.4%
- level of inhibition of IFN (IFNγ; [3]): full inhibition
- inhibition at 0.000457247 µM (TNFα; [2]): 2.76%
- inhibition at 0.00137174 µM (TNFα; Homo sapiens, mean of donors): 6.36%
- inhibition at 0.00411523 µM (TNFα; Homo sapiens, mean of donors): 8.95%
- inhibition at 0.0123457 µM (TNFα; Homo sapiens, mean of donors): 19.6%
- inhibition at 0.037037 µM (TNFα; Homo sapiens, mean of donors): 49.2%
- inhibition at 0.111111 µM (TNFα; Homo sapiens, mean of donors): 67.1%
- inhibition at 0.333333 µM (TNFα; Homo sapiens, mean of donors): 86.9%
- inhibition at 1 µM (TNFα; Homo sapiens, mean of donors): 90.4%
- level of inhibition of TNF (TNFα; [3]): full inhibition
- inhibition at 0.000457247 µM (IL-1β; [2]): -0.571%
- inhibition at 0.00137174 µM (IL-1β; Homo sapiens, mean of donors): -1.26%
- inhibition at 0.00411523 µM (IL-1β; Homo sapiens, mean of donors): 0.84%
- inhibition at 0.0123457 µM (IL-1β; Homo sapiens, mean of donors): 7.17%
- inhibition at 0.037037 µM (IL-1β; Homo sapiens, mean of donors): 36.7%
- inhibition at 0.111111 µM (IL-1β; Homo sapiens, mean of donors): 61.9%
- inhibition at 0.333333 µM (IL-1β; Homo sapiens, mean of donors): 87.6%
- inhibition at 1 µM (IL-1β; Homo sapiens, mean of donors): 91.8%
- level of inhibition of IL-1 (IL-1β; [3]): full inhibition
